This passage reports EC50 results from patent US8642774B2, “Compounds” (Boehringer Ingelheim International GmbH, priority 2011, dated 2014).

The target in one experiment is T1, human recombinant mGluR5 (Homo sapiens, UniProt P41594).
T1 construct: expressed in transfected cells; host or cells: HEK 293 cell line, cultured with tetracycline, hygromycin and geneticin; tetracycline is withdrawn 3-7 days before the assay
T1 sequence (P41594 21-1212): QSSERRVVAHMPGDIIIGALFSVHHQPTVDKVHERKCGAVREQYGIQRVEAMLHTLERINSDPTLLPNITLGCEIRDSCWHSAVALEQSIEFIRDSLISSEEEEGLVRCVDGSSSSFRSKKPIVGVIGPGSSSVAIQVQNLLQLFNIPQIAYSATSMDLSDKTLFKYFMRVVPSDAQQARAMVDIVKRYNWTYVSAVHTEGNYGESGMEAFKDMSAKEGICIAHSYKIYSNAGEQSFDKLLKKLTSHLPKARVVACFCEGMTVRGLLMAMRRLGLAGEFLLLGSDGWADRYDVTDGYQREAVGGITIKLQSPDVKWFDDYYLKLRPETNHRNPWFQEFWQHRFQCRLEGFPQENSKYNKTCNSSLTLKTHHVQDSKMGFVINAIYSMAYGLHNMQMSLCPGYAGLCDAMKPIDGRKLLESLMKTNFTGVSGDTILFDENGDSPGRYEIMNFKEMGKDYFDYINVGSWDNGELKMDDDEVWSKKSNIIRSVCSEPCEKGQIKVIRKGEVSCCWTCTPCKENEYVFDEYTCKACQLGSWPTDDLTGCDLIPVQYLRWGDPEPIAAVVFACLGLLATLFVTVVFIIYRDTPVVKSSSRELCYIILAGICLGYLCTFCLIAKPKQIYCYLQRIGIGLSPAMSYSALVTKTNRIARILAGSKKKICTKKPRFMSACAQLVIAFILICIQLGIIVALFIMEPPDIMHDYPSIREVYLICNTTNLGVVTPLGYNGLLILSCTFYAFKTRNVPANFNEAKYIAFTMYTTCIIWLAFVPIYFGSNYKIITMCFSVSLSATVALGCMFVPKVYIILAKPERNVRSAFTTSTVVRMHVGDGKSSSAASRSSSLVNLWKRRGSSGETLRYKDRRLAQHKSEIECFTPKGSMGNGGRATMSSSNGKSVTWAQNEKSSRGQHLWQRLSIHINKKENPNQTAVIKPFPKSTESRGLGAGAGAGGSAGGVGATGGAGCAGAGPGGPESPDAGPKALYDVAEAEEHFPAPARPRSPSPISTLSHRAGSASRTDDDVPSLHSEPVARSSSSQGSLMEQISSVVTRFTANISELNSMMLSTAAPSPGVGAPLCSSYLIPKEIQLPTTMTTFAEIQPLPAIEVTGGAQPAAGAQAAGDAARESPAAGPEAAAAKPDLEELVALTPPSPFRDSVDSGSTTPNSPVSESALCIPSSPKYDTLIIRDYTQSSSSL
The experiment is described as follows: positive modulation of mGluR5, calcium based FLIPR assay. It counts as cell-based.
Conditions: not given
Here is the method:
The positive modulation of mGluR5 is measured in a HEK 293 cell line expressing human recombinant mGluR5 and is detected with calcium based FLIPR assay. The cells are cultured with DMEM supplemented with 10% FCS, 2 μg/mL tetracycline, 100 μg/mL hygromycin and 500 μg/mL gneticin. The cell culture media is exchanged for tetracycline-free cell culture media 3-7 days before the assay. One day before the assay the cell culture medium is exchanged to DMEM without glutamine and phenol red and supplemented with 10% FCS, 100 μg/mL hygromycin and 500 μg/mL geneticin. On the assay day, the medium of the subconfluent cultures is removed and the cells are detached by addition of 2.5 ml EDTA (0.02%) per 175 cm2 culture flask for 1 minute. The cells are resuspend in Ringer solution (140 mM NaCl, 5 mM KCl, 2.5 mM CaCl2, 1.5 mM MgCl2, 5 mM Glucose, 10 mM Hepes; adjusted to pH 7.4 with NaOH), pooled and Ringer solution added to adjust the volume to 50 mL. The cell suspension is centrifuged for 5 min at 1500 U/min (425 g). The supernatant is removed and the cells washed a second time with 50 ml fresh Ringer solution and centrifuged again as before. The supernatant is again removed and the pellet resuspended in Ringer solution to 1,000,000 cells/ml (1×10^6 cells/mL). The cells are plated onto BD BioCoat Poly-D-Lysine 384 well plates (20.000 cells/well; 20 μl/well). The lid covered plates are then incubated until use at 37° C./10% CO2. For dye loading, 20 μl of Calcium-4 assay kit solution (prepared according to the manufacturer's description in Ringer solution) are added to the cells and the plates are incubated for 80 min 37° C. and then 10 min at room temperature. • Controls, Compound dilution and assay execution: • Each assay plate contained wells with “high” and “low” controls:
Low controls 1% DMSO/ringer solution+basal glutamate activation (defined as 100% CTL).
High controls 10 μM CDPPB+basal glutamate activation (defined as 200% CTL).
Test compounds are dissolved and diluted in DMSO to 100-fold the desired concentrations. In a second step, the compounds are diluted in Ringer solution such that the compounds are 4-fold more concentrated than the desired final assay concentration. The final DMSO concentration was 1%.
20 μl of each compound solution are then transferred to the assay plate and the Ca2+ kinetic is measured to determine any intrinsic compound activity. After 5 min incubation in the FLIPR device, the second stimulation with 20 μl of glutamate in Ringer solution (glutamate concentration adjusted to approximately 5% basal stimulation of the maximal possible glutamate effect) is added and the kinetic Ca2+ response of the wells was measured for the modulation effect.
The peak height of the Ca release related fluorescence signal (9-66) is used for the EC50. The EC50 of the modulation is calculated over a nonlinear regression with GraphPad Prism (Table 1).
For `O=C(Cn1nc(-c2ccc(F)cc2)nc1-c1ccc(F)cc1)N1CCC(Nc2ccccc2)CC1` [Example 7.02.20.], the EC50 (usually the concentration at which the effect is half-maximal) was found to be 1530 nM.

The experiment is the same for the next values; noted with them: EC50 of the modulation; HEK 293 cell line expressing human recombinant mGluR5; peak height of Ca fluorescence signal after glutamate at approx. 5% basal stimulation; read-out: EC50.
For the compound `O=C(Cn1nc(-c2ccc(F)cc2)nc1-c1ccc(F)cc1)N1Cc2nc(-c3ccccc3)sc2C1` [Example 7.02.63.], the EC50 came to 1010 nM.
As to `Cc1nc2c(s1)CN(C(=O)Cn1nc(-c3ccc(F)c(C)c3)nc1C1CCCC1)C2` [Example 7.03.105.], the EC50 turned out to be 870 nM.
On the same count and under the same terms, the value for `Cc1cc(-c2nc(C3CCCCC3C)n(CC(=O)N3CCc4nc(N)sc4CC3)n2)ccc1F` (centres unmarked) [Example 7.03.094.] was 1090 nM; that for `O=C(Cn1nc(-c2ccc(F)cc2)nc1-c1ccc(F)cc1)N1CCN(c2nc3ccccc3o2)CC1` [Example 7.03.047.] was 140 nM; that for `Cc1nc2c(s1)CCN(C(=O)Cn1nc(-c3ccc(F)cc3)nc1-c1ccc(F)cn1)CC2` [Example 7.03.117.] was 889 nM.
Same read-out and setting: the value for `O=C(Cn1nc(-c2ccc(F)cc2)nc1-c1ccc(F)cc1)N1CCN(C2=NCCCS2)CC1` [Example 7.05.01., 2-(3,5-bis-(4-Fluoro-phenyl)-(1,2,4)triazol-1-yl]-1-[4-(5,6-dihydro-4H-(1,3)thiazin-2-yl)-piperazin-1-yl]-ethanone] was 1710 nM; that for `O=C(Cn1nc(-c2ccc(F)cc2)nc1-c1ccc(F)cc1)N1CCc2nc(N3CCOCC3)sc2CC1` [Example 7.04.05.] was 1660 nM; that for `COc1ccc(-c2nc(-c3ccccc3)n(CC(=O)N3Cc4nc(C)oc4C3)n2)cc1` [Example 7.03.132] was 95 nM.
Consider `O=C(Cn1nc(-c2ccc(F)cc2)nc1-c1ccc(F)cc1)N1CCC(c2ncno2)CC1` [Example 7.02.57.], for which the EC50 came to 1450 nM.
Still for that read-out and setting: the value for `Cc1cc(-c2nc(C(C)C)n(CC(=O)N3CC=C(c4ncccn4)CC3)n2)ccc1F` [Example 7.03.076.] was 1710 nM; that for `Cc1noc(C2CCN(C(=O)Cn3nc(-c4ccc(F)cc4)nc3-c3ccc(F)cc3)CC2)n1` [Example 7.02.38.] was 1150 nM.
The same measure, in the same setting: the value for `Cc1cc(-c2nc(-c3ccccc3)n(CC(=O)N3CCc4ncsc4CC3)n2)ccc1F` [Example 7.02.87.] was 58.8 nM.
Still for that read-out and setting: the value for `Cc1ncc2c(n1)CCN(C(=O)Cn1nc(-c3ccc(F)cc3)nc1-c1ccc(F)cc1)C2` [Example 7.02.55.] was 1200 nM; that for `O=C(Cn1nc(-c2ccc(F)cc2)nc1-c1ccc(F)cc1)N1CCc2cc(F)ccc2C1` [Example 7.02.05.] was 900 nM.
With `COc1ccc(-c2nc(-c3ccccc3)n(CC(=O)N3Cc4nc(C)sc4C3)n2)cc1` [Example 7.03.050.], the EC50 was determined as 338 nM.
Take `CCc1nc(-c2ccc(F)c(C)c2)nn1CC(=O)N1CCc2nc(C)sc2CC1` [Example 7.03.081.]: the EC50 turned out to be 413 nM.
Still for that read-out and setting: the value for `Cc1nc(N2CCN(C(=O)Cn3nc(-c4ccc(OC(F)F)cc4)nc3-c3ccccc3)CC2)no1` [Example 7.03.135] was 19 nM.
Still for that read-out and setting: then `O=C(Cn1nc(-c2ccc(F)cc2)nc1-c1ccc(F)cc1)N1CCN(c2noc3ccccc23)CC1` [Example 7.02.73.], with 148 nM; and `O=C(Cn1nc(-c2ccc(F)cc2)nc1-c1ccc(F)cc1)N1Cc2ccc(O)cc2C1` [Example 7.02.58.], with 214 nM.
Consider `O=C(Cn1nc(-c2ccc(F)cc2)nc1-c1ccc(F)cc1)N1CCN(c2ccccn2)C(=O)C1` [Example 7.01.01., 4-(2-(3,5-bis-(4-Fluoro-phenyl)-(1,2,4)triazol-1-yl)-acetyl)-1-pyridin-2-yl-piperazin-2-one], for which the EC50 was found to be 212 nM.
The same measure, in the same setting: the value for `O=C(Cn1nc(-c2ccc(F)cc2)nc1-c1ccc(F)cc1)N1CCC(c2nnco2)CC1` [Example 7.03.034.] was 907 nM; that for `O=C(Cn1nc(-c2ccc(F)cc2)nc1-c1ccc(F)cc1)N1CCN(c2cccc(F)c2)C(=O)C1` [Example 7.02.13.] was 544 nM.
For `Cc1cc(-c2nc(-c3ccccc3)n(CC(=O)N3CCc4nc(N)sc4CC3)n2)ccc1F` [Example 7.03.065.], the EC50 turned out to be 95 nM.
In the case of `CCc1nc(-c2ccc(F)c(C)c2)nn1CC(=O)N1CCc2nc(N)sc2CC1` [Example 7.03.082.], the EC50 is 1890 nM.
As for `O=C(Cn1nc(-c2ccc(F)cc2)nc1-c1ccc(F)cc1)N1CCc2c(F)ccc(F)c2C1` [Example 7.02.27.], the EC50 came out at 1830 nM.
Same read-out and setting: the value for `O=C(c1ccccc1)C1CCN(C(=O)Cn2nc(-c3ccc(F)cc3)nc2-c2ccc(F)cc2)CC1` [Example 7.02.71.] was 441 nM; that for `O=C(Cn1nc(-c2ccc(F)cc2)nc1-c1ccc(F)cc1)N1CCC(c2nnc(-c3ccc(F)cc3)o2)CC1` [Example 7.02.22.] was 746 nM.
Same read-out and setting: the value for `COc1cc(C2=CCN(C(=O)Cn3nc(-c4ccc(F)c(C)c4)nc3C(C)C)CC2)ncn1` [Example 7.03.077.] was 500 nM; that for `COc1cc(-c2nc(-c3ccc(F)cc3)nn2CC(=O)N2CCc3nc(C)sc3CC2)ccc1F` [Example 7.03.069.] was 574 nM.
In the case of `COc1ccc(-c2nc(-c3ccc(OC)cc3)n(CC(=O)N3Cc4nc(C)oc4C3)n2)cc1` [Example 7.03.133], the EC50 was 104 nM.
With `Cc1cc(-c2nc(-c3ccccc3)n(CC(=O)N3CCc4ncnc(-c5ccccc5)c4CC3)n2)ccc1F` [Example 7.02.80.], the EC50 came to 323 nM.
Still for that read-out and setting: the value for `COC(=O)c1ccc2c(c1)CCN(C(=O)Cn1nc(-c3ccc(F)cc3)nc1-c1ccc(F)cc1)CC2` [Example 7.02.11.] was 376 nM.
For `Cc1cc(-c2nc(C3CCC(C)CC3)n(CC(=O)N3CCc4nc(N)sc4CC3)n2)ccc1F` (centres unmarked) [Example 7.03.092.], the EC50 was 1160 nM.
On to `Cc1nc2c(s1)CCN(C(=O)Cn1nc(-c3ccc(OC(F)F)cc3)nc1-c1ccccc1)CC2` [Example 7.03.127], for which the EC50 was 40 nM.
Same read-out and setting: the value for `CCCCCc1nc(-c2ccc(F)c(C)c2)nn1CC(=O)N1CCN(c2cccc(OC)c2)C(=O)C1` [Example 7.03.109.] was 422 nM; that for `N#Cc1ccc(Cl)cc1NC1CCN(C(=O)Cn2nc(-c3ccc(F)cc3)nc2-c2ccc(F)cc2)CC1` [Example 7.02.24.] was 560 nM; that for `CC(C)c1ncc2c(n1)CCN(C(=O)Cn1nc(-c3ccc(F)cc3)nc1-c1ccc(F)cc1)C2` [Example 7.02.32.] was 468 nM.
As for `COc1cccc(N2CCN(C(=O)Cn3nc(-c4ccc(F)cc4)nc3-c3ccc(F)cc3)CC2=O)n1` [Example 7.03.041.], the EC50 was determined as 161 nM.
The same measure, in the same setting: then `CCCc1nc(-c2ccc(F)c(C)c2)nn1CC(=O)N1Cc2nc(C)sc2C1` [Example 7.03.071.], with 1170 nM; and `COc1ccnc(C2=CCN(C(=O)Cn3nc(-c4ccc(F)c(C)c4)nc3C(C)C)CC2)c1` [Example 7.03.079.], with 545 nM; and `CCc1nc2c(s1)CCN(C(=O)Cn1nc(-c3ccc(F)cc3)nc1-c1ccc(F)cc1)CC2` [Example 7.03.030.], with 37 nM.
Same read-out and setting: the value for `Cc1nc2c(s1)CCN(C(=O)Cn1nc(-c3ccc(F)c(C)c3)nc1C(C)C)CC2` [Example 7.03.074.] was 321 nM; that for `Cc1nc2c(s1)CN(C(=O)Cn1nc(-c3ccc(F)c(C)c3)nc1CCC(C)C)C2` [Example 7.03.113.] was 340 nM.
In the case of `O=C(Cn1nc(-c2ccc(F)cc2)nc1-c1ccc(F)cc1)N1CCC(c2ncc(-c3ccccc3)s2)CC1` [Example 7.02.19.], the EC50 is 1990 nM.
As for `CCCCc1nc(-c2ccc(F)c(C)c2)nn1CC(=O)N1CCc2nc(N)sc2CC1` [Example 7.03.102.], the EC50 was 293 nM.
`COc1ccc2c(c1)CN(C(=O)Cn1nc(-c3ccc(F)cc3)nc1-c1ccc(F)cc1)CC2` [Example 7.02.41.]: the concentration giving a half-maximal response (EC50) stood at 1270 nM.
Consider `COc1ccc(-c2nc(-c3ccccc3)n(CC(=O)N3CCc4nc(C)sc4CC3)n2)cc1` [Example 7.03.054.], for which the EC50 was found to be 97 nM.
Same read-out and setting: then `Cc1cc(-c2nc(C(C)C)n(CC(=O)N3CCc4nc(N)sc4CC3)n2)ccc1F` [Example 7.03.073.], with 1170 nM; and `CC(=O)Nc1nc2c(s1)CCN(C(=O)Cn1nc(-c3ccc(F)cc3)nc1-c1ccc(F)cc1)CC2` [Example 7.02.07.], with 1200 nM.
